Experiments:
[1] = test system: MV-4-11 cells; test: Antiproliferative activity, CCK-8 assay; format: cell-based; conditions: Homo sapiens, MV4-11; 144 hours incubation, CCK-8, absorbance at 450 nm
Method: (§1) The cell models used in this example were human hematologic tumor cells, including NCI-H929, RPMI-8226, MV-4-11, U937 and WSU-DLCL-2. Some of the compounds of the present invention were selected to determine their inhibitory activity against the proliferation of NCI-H929, RPMI-8226, MV-4-11, U937, and WSU-DLCL-2 cells.
(§2) • ① The selected compounds were dissolved in DMSO to prepare 10 mM stock solutions. Compounds used within three months should be stored at room temperature in a desiccator; others could be stored at -20°C for long-term storage. • ② The above stock solutions and the positive reference compound pomalidomide were diluted with DMSO. Their initial concentrations were 10 µM. In the experiments of NCI-H929 and RPMI-8226 cells, 3-fold serial dilution with 11 concentration points was performed, with the lowest concentration of 0.00047 µM. The resulting solutions were shaken on a shaker for 5 minutes.
(§3) • ① The NCI-H929, RPMI-8226, MV-4-11, U937, and WSU-DLCL-2 cells in logarithmic growth phase were inoculated in a 96-well plate, 20,000 to 30,000 cells per well, and the plate was pre-cultured for 24 hours in an incubator (at 37°C and 5% CO2). • ② The culture medium in the plate was replaced, and the compounds and the positive control with corresponding concentrations were added to the plated at a volume of 50 µl. • ③ The plate was incubated for 144 hours in an incubator, then 15 µl of CCK-8 solution was added to each well, and incubated in the incubator for another 1-4 hours. • ④ The absorbance at 450 nm was measured using a microplate reader.
(§4) • ① Calculating % Inhibition: [formula] • ② Calculating IC50 value of compound and plotting dose-response curve: The IC50 value was calculated by fitting the % Inhibition and the logarithm of compound concentration to a nonlinear regression (dose response-variable slope) by using GraphPad 6.0. • Y = Bottom + (Top - Bottom) / (1 + 10^((LogIC50 - X) * HillSlope)) • X: log of inhibitor concentration; Y: % Inhibition.
(§5) After calculating % Inhibition, a dose-response curve was plotted with the logarithm of the test compound concentration as the x-axis and the average cell viability as the y-axis, and the IC50 value was obtained by fitting.

[2] = test system: NCI-H929 cells; test: Antiproliferative activity, CCK-8 assay; format: cell-based; conditions: Homo sapiens, 144 hours incubation, CCK-8, absorbance at 450 nm, read-out: IC50 (µM) H-929
Method: as §1, §2, §3, §4, §5

[3] = test system: U937 cells; test: Antiproliferative activity, CCK-8 assay; format: cell-based; conditions: Homo sapiens, U-937; 144 hours incubation, CCK-8, absorbance at 450 nm
Method: as §1, §2, §3, §4, §5

[4] = test system: WSU-DLCL-2 cells; test: Antiproliferative activity, CCK-8 assay; format: cell-based; conditions: Homo sapiens, WSUDLCL2; 144 hours incubation, CCK-8, absorbance at 450 nm
Method: as §1, §2, §3, §4, §5

[5] = test system: human multiple myeloma NCI-H929 xenograft tumors; test: In vivo antitumor activity against NCI-H929 transplanted tumors; parameters: species or system NOD/SCID mice; conditions: QD; for growth of NCI-H929 transplanted tumors (in words): 3 mg/kg and 10 mg/kg; for Tumor inhibition rate TGI (%) / Average volume (mm^3) (Day 10) / Initial volume (mm^3): oral gavage; for Tumor inhibition rate TGI (%): 10 consecutive days; for Initial volume (mm^3): baseline
Method: In this example, the human multiple myeloma NCI-H929 cell line was used as the cell model. The inhibitory effects of compounds on the growth of NOD/SCID mouse transplanted tumors of NCI-H929 tumor cells were determined. The evaluation methods and results are described below.
Human multiple myeloma NCI-H929 cells were routinely cultured in RPMI1640 containing 10% fetal bovine serum at 37°C in a 5% CO2 incubator. After three passages in vitro, when the cells reached over 80% confluence and the required confluence rate, the cells were digested and harvested. After washing with PBS, the cells were counted and the cell concentration was adjusted to approximately 5 × 10^7 cells/mL. The cells were then placed in 4 mL centrifuge tubes on ice for later use.
Female NOD/SCID mice aged 4-5 weeks were selected and subcutaneously inoculated with NCI-H929 cells ectopically. The mice were held in a lateral position, the forelimb axilla was disinfected with 75% alcohol, and 100 µL of the cell suspension was injected subcutaneously into the axilla using a 1 mL syringe ([…]/100 µL).
After the tumors grew to 90-150 mm^3, the animals were randomly divided into groups, 8 mice in each group, and administered according to different administration methods as follows: • Model control group: Administered with the same volume of Vehicle (DMSO: 0.5% sodium carboxymethyl cellulose: distilled water = 1:1:8) daily by gavage; • Control drug group 1: administered with pomalidomide solution at 10 mg/kg (mouse body weight) daily by gavage; • Control drug group 2: administered with CC-220 solution at 3 mg/kg (mouse body weight) daily by gavage; • Control drug group 3: administered with CC-220 solution at 10 mg/kg (mouse body weight) daily by gavage; • Experimental compound group 4: administered with compound I-4 solution at 3 mg/kg (mouse body weight) daily by gavage; • Experimental compound group 5: administered with compound I-4 solution at 10 mg/kg (mouse body weight) daily by gavage; • Experimental compound group 6: administered with compound I-8 solution at 3 mg/kg (mouse body weight) daily by gavage; • Experimental compound group 7: administered with compound I-8 solution at 10 mg/kg (mouse body weight) daily by gavage;
The route of administration was oral gavage, and the administration frequency was once daily, for 10 consecutive days. The first day of administration was defined as Day 1 of the experiment. Tumor volume changes in mice were measured and recorded every two days. Tumor volume was measured using a vernier caliper, in which the major axis (a) and minor axis (b) of the tumor were measured, and the tumor volume was calculated as tumor volume V (mm^3) = a x b^2/2. After the experiment, the mice were dissected and the tumor weight was measured. The data were entered and statistically analyzed using GraphPad Prism 6 software. The data are expressed as mean ± SEM (Standard Error of Mean), and one-way ANOVA was used. P ≤ 0.05 was considered statistically significant.

SMILES	IC50 [1]	IC50 [2]	IC50 [3]	IC50 [4]	growth of NCI-H929 transplanted tumors (in words) [5]	Tumor inhibition rate TGI (%) ([5]; 3 mg/kg)	Average volume (mm^3) (Day 10) ([5]; 3 mg/kg)	Initial volume (mm^3) ([5]; 3 mg/kg)	Tumor inhibition rate TGI (%) ([5]; 10 mg/kg)	Average volume (mm^3) (Day 10) ([5]; 10 mg/kg)	Initial volume (mm^3) ([5]; 10 mg/kg)
CN1Cc2c(N)cccc2C(=O)N1C1CCC(=O)NC1=O (centres unmarked) [I-4, 3-(5-amino-3-methyl-1-oxo-3,4-dihydrophthalazin-2(1H)-yl)piperidin-2,6-dione]	0.183 µM	0.116 µM	0.31 µM	1.21 µM	significantly inhibited the growth	66.53%	843.1 mm^3	191.6 mm^3	92.82%	344.5 mm^3	204.8 mm^3
CN1Cc2c(NCc3ccc(CN4CCN(c5ccc(C#N)c(F)c5)CC4)cc3)cccc2C(=O)N1C1CCC(=O)NC1=O (centres unmarked) [I-8]	0.0058 µM	0.0039 µM	0.0088 µM	0.017 µM	significantly inhibited the growth	84.25%	500.1 mm^3	193.5 mm^3	100.72%	197.3 mm^3	211.3 mm^3
Nc1cccc2c1C(=O)N(C1CCC(=O)NC1=O)C2=O (centres unmarked) [Pomalidomide, reference compound]	> 10 µM	3.91 µM	2.53 µM	> 10 µM	–	–	–	–	80.09%	573.1 mm^3	185.6 mm^3

— EP4722203A1, “3,4-DIHYDROPHTHALAZIN-1(2H)-ONE DERIVATIVE, AND PREPARATION METHOD THEREFOR AND USE THEREOF” (Academy of Military Medical Sciences, priority 2023, dated 2024)
